Laboratory results published in EP0168112A2, “Alpha-L-aspartyl-D-phenylglycine esters and amides useful as high intensity sweeteners” (THE PROCTER & GAMBLE COMPANY, priority 1984, dated 1986).
Square brackets hold non-standard residues; d marks the D form. Peptide text beside a SMILES is read from it. Phg = N[C@H](C(=O)O)c1ccccc1

Experiment: Sweetness intensity relative to sucrose, taste panel comparison with five sucrose standard samples
Type: in vivo, Male subjects
Conditions: relative to sucrose (w/v); test sample about 22°C, prepared at a concentration equal to about 8-10% sucrose
Experimental: The subjects were asked to taste and expectorate about 10 ml of a test sample (temperature of about 22°C) having dissolved therein the ester or amide. The subjects were then asked to compare the sweetness of the test sample with five standard samples which contained increasing amounts of sucrose. The standard samples were letter coded A, B, C, D and E and were designated on a ballot by a closed linear scale. Sweetness intensity of the test sample was recorded by the subject making a mark on the linear scale at a point they considered equal in sweetness among the standard samples; interpolation between standards was encouraged. After completion of the panel, a five point numeric scale was superimposed on the linear scales to obtain numerical data; data were averaged and recorded to the nearest 0.25 unit. Equivalent sucrose sweetness was determined by referring to graphs of (wlv) sucrose concentration in the standard samples versus a linear numeric scale.
Sweetness intensity was calculated by dividing the concentration (w/v) of perceived sweeteness by the concentration (wlv) of the ester or amide required to produce that sweetness. […] The test sample was prepared at a concentration which would be equal to about 8-10% sucrose.
In the case of `N[C@@H](CC(=O)O)C(=O)N[C@@H](C(=O)NC(C1CC1)C1CC1)c1ccccc1` [Example 12, alpha-L-Aspartyl-D-phenylglycinedicyclopropylcarbinyl amide], the sweetness intensity is reported as 80 X.
(±) exo-Norbornyl ester [Example 6] gave a sweetness intensity of 150 X.
With (±) endo-Norbornyl ester [Example 5] the sweetness intensity was 20 X.
`CC1CCC(C)C1OC(=O)[C@H](NC(=O)[C@@H](N)CC(=O)O)c1ccccc1` (stereo partly drawn) [Example 4, 2,5-Dimethylcyclopentyl ester] gave a sweetness intensity of 370 X.
For `CC1(C)[C@@H]2CC[C@@](C)(C2)[C@@H]1OC(=O)[C@H](NC(=O)[C@@H](N)CC(=O)O)c1ccccc1` [Example 1, alpha-L-Aspartyl-D-phenylglycine-(-)-alpha-fenchyl ester], the sweetness intensity was 1750 X.
“alpha-L-Aspartyl-D-phenylglycine-(+)-beta-fenchyl ester [Example 8b]” gave a sweetness intensity of 5000 X.
For “alpha-L-Aspartyl-D-phenylglycine-(-)-beta-fenchyl ester [Example 8a]”, the sweetness intensity was 600 X.
With `CC(OC(=O)[C@H](NC(=O)[C@@H](N)CC(=O)O)c1ccccc1)C(C)(C)C` (stereo partly drawn) [Example 2, 3,3-Dimethyl-2-butyl ester] the sweetness intensity was 30 X.

Experiment: Sweetness intensity based on informal panel testing
Type: in vivo
Conditions: not given
In the case of “alpha-L-Aspartyl-D-phenylglycine-alpha-7-oxa-fenchyl ester [Example 14]”, the sweetness intensity is reported as “approximately 1000 X”.
`CC1(C)SC(C)(C)C1NC(=O)[C@H](NC(=O)[C@@H](N)CC(=O)O)c1ccccc1` [Example 11, alpha-L-Aspartyl-D-phenylglycine-2,2,4,4-tetramethylthietan-3-yl amide] gave a sweetness intensity of 100 X.

Experiment: Solubility for the sweetness intensity measurement
Type: physicochemical
Conditions: sweetness intensity test sample
In the case of `CC1CCCC(C)C1NC(=O)[C@H](NC(=O)[C@@H](N)CC(=O)O)c1ccccc1` (stereo partly drawn) [Example 10, 2,6-Dimethylcyclohexyl amide], the solubility is reported as “too Insoluble for an accurate sweetness intensity measurement”.

Experiment: not given
Conditions: prior art value; cited from earlier work
In the case of `CC1CCCC(C)C1NC(=O)[C@@H](C)NC(=O)[C@@H](N)CC(=O)O` (stereo partly drawn) [2,6-dimethylcyclohexyl], the sweetness intensity is given as 600 times that of sucrose.
In the case of `COC(=O)[C@H](Cc1ccccc1)NC(=O)[C@@H](N)CC(=O)O` [aspartame, alpha-L-aspartyl-L-phenylalanine methyl ester] (H-Asp-Phe-OMe), the sweetness intensity is listed as 150-200 times that of sucrose.
For `C[C@@H](NC(=O)[C@@H](N)CC(=O)O)C(=O)NC1C(C)(C)S(=O)(=O)C1(C)C`, the sweetness intensity is listed as 1000 times that of sucrose.
In the case of `CC1CCC(C)C1NC(=O)[C@@H](C)NC(=O)[C@@H](N)CC(=O)O` (stereo partly drawn) [2,5 dimethylcyclopentyl], the sweetness intensity is listed as 520 times that of sucrose.
For `O=C1NS(=O)(=O)c2ccccc21` [Saccharin, saccharin], the sweetness intensity is listed as “about 300 times that of sucrose”.
For `COC(=O)[C@@H](NC(=O)[C@@H](N)CC(=O)O)c1ccccc1` [methyl ester of L-aspartyl-L-phenylglycine] (H-Asp-[Phg]-OMe), the sweetness intensity is given as 100-1000 times that of sucrose.
In the case of `C[C@@H](NC(=O)[C@@H](N)CC(=O)O)C(=O)NC(C1CC1)C1CC1` [dicyclopropylcarbinyl], the sweetness intensity is listed as 1200 times that of sucrose.
For `COC(=O)C(NC(=O)[C@@H](N)CC(=O)O)C(=O)OC1C2(C)CCC(C2)C1(C)C` (stereo partly drawn) [R' is fenchyl and R is methyl], the sweetness intensity is given as 22,200-33,200 times that of sucrose.
For `CCOC(=O)C(NC(=O)[C@@H](N)CC(=O)O)C(=O)OC1C2(C)CCC(C2)C1(C)C` (stereo partly drawn) [R' is fenchyl and R is ethyl], the sweetness intensity is given as 4200-5400 times that of sucrose.
For `C[C@@H](NC(=O)[C@@H](N)CC(=O)O)C(=O)NC1C(C)(C)SC1(C)C` [2,2,4,4-tetramethylthietan-3-yl], the sweetness intensity is given as 2000 times that of sucrose.

Same assay, conditions: taste description from prior art; cited from earlier work
In the case of `COC(=O)[C@@H](Cc1ccccc1)NC(=O)[C@@H](N)CC(=O)O` [methyl ester of L-aspartyl-D-phenylalanine] (H-Asp-[dF]-OMe), the taste is listed as “bitter”.
For `COC(=O)[C@@H](NC(=O)[C@@H](N)CC(=O)O)c1ccccc1` [methyl ester of L-aspartyl-L-phenylglycine] (H-Asp-[Phg]-OMe), the taste is listed as “quite sweet”.

Experiment: not given
Conditions: in most carbonated beverages; background statement; cited from earlier work
For `COC(=O)[C@H](Cc1ccccc1)NC(=O)[C@@H](N)CC(=O)O` [aspartame, alpha-L-aspartyl-L-phenylalanine methyl ester] (H-Asp-Phe-OMe), the hydrolytic stability is listed as “hydrolytically unstable”.
